# Data as given in US8420696B2, “Use of low-dose ladostigil for neuroprotection” (priority 2005, dated 2013).
# Assays:
# [1] = tested on: cultured neuronal cells; settings: low concentrations; cited from earlier work
# [2] = tested on: rats injected icv with STZ (spatial memory); test: Place recognition test after icv STZ; assay type: in vivo, Sprague-Dawley rats
# Method: Male Sprague-Dawley rats (63) weighing 320-340 g, aged 4 months, were anesthetized by an intraperitoneal injection of Equithesin 0.3 ml/kg. STZ (0.5 mg) dissolved in 2 μl artificial cerebrospinal fluid (CSF) was injected into each lateral ventricle of 45 rats. The stereotaxic co-ordinates for icv injection were: 0.9 mm posterior, 1.8 mm lateral and 3.8 mm ventral from the bregma level. Control rats (18) received a bilateral injection of 2 μl artificial CSF. STZ-injected rats (25) were given ladostigil (1 mg/kg of the hemitartrate salt/day) orally in a volume of (1 ml/kg) from one week before, until 1 or 8 weeks after icv STZ. The remaining 20 rats received 1 ml/kg water. The rats were housed two per cage with free access to food and water until the behavioral, enzymatic and cytochemical measurements were completed.
# Episodic memory in the object recognition test was still intact 2 but not 4 weeks after a single icv STZ injection (Table 3). […] The object recognition test measured non-spatial working memory with characteristics of episodic memory that is primarily affected in senile dementia (Bartolini et al., Aniracetam restores object recognition impaired by age, scopolamine, and nucleus basalis lesions, Pharmacol. Biochem. Behav. (1996) 53:277-83). […] Two identical objects were placed in the arena and the time taken by the rats to explore each object during a period of 3 min was recorded. […]
# [3] = tested on: cultured microglia; test: Release of NO from cultured microglia induced by LPS; assay type: cell-based; settings: concentrations of 0.1-10 μM; preliminary data
# Method: It is therefore likely that the neuroprotective effect of ladostigil resulted from other actions of the drug. These could include a direct effect on microglia as shown in preliminary data from experiments in our laboratory in which concentrations of 0.1-10 μM reduced by 20-40% the release of NO from cultured microglia induced by LPS. These concentrations are too low to inhibit ChE in microglia.
# [4] = target: T1, MAO-B (Rattus norvegicus, UniProt P19643); test: Example 2: MAO-B activity in homogenates of striatum; assay type: in vivo, rats; settings: chronic 1 mg/kg
# T1 construct: from tissue; host or cells: striatum homogenate of dosed Sprague-Dawley rats
# T1 sequence (P19643 1-520): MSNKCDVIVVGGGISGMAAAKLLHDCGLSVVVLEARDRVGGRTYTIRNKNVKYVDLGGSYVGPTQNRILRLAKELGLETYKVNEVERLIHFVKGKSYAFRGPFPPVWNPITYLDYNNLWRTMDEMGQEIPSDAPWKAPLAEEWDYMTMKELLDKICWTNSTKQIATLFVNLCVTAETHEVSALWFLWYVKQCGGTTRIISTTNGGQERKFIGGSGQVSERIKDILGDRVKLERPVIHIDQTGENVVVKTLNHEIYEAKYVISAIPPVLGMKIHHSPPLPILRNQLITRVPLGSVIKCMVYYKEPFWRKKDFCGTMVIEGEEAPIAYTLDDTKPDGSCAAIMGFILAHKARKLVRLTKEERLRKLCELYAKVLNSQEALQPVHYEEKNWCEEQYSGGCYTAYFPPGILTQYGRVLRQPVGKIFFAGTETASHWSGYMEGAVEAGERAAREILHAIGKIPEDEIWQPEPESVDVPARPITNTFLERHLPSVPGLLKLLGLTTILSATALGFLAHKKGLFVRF
# Method: The effect of chronic ladostigil treatment on ChE activity in the cortex and hippocampus of rats was determined one week after icv STZ in 12 rats (3 treated with water and 9 with ladostigil). The effect of acute treatment with ladostigil 1 or 17 mg/kg was determined 2 hrs after drug administration. […] The brain was rapidly removed, washed with saline on ice and the cortex, hippocampus and striatum dissected out, quickly weighed and stored at −70° C. until assay. Total ChE activity in the cortex and hippocampus was measured as described in Wang et al., Gender differences in the effect of rivastigmine on brain cholinesterase activity and cognitive function in rats, Neuropharmacology (2000) 39:497-506, using the spectrophotometric method of Ellman et al., A new and rapid colorimetric determination of acetylcholinesterase activity, Biochem. Pharmacol. (1961) 7:88-95 with acetylthiocholine (Sigma Ltd) as a substrate using homogenate of 100 mg tissue in 1 ml phosphate buffer. […] MAO A and B activity was measured in homogenates of striatum as described in Weinstock et al., Limited potentiation of blood pressure response to oral tyramine by brain-selective monoamine oxidase A-B inhibitor, TV-3326 in conscious rabbits, Neuropharmacology (2002) 43:999-1005.
compound,measurement,setting,value
"C#CCN[C@@H]1CCc2ccc(OC(=O)N(C)CC)cc21 [ladostigil, R(+)-6-(N-methyl,N-ethyl-carbamoyloxy)-N′-propargyl-1-aminoindan]",Cytotoxicity induced by ROS and NO in cultured neuronal cells,[1],prevent cytotoxicity
same,"Discrimination index, Place","[2]; STZ (4 weeks) + ladostigil 1 mg/kg chronic, mean ± s.e.m.",0.211 ± 0.07
same,Discrimination in place recognition test,"[2]; icv STZ with chronic ladostigil, significantly >0, P<0.05",significant discrimination index
same,Reduction of the release of NO from cultured microglia induced by LPS,[3],20-40%
same,MAO-B (%) inhibition,[4]; 60 min,11.3 ± 1.4 %
same,MAO-B (%) inhibition,[4]; 120 min (2 hrs),15%
